Reference: patent EP4617278A1, “NUCLEOTIDE ANALOG, AND COMPOSITION AND USE THEREOF” (priority 2022, dated 2024)

test system: RSV A2 virus; test: RSV CPE assay; conditions: read-out: RSV A2 (Hep-2 cell) EC50; HEp-2 cells, RSV A2 virus, 5 days, CCK8

| Substance | EC50 [nM] |
| --- | --- |
| (2R,3R,4R,5R)-2-(4-aminopyrrolo[2,1-f][1,2,4]triazin-7-yl)-2-cyano-5-((((R)-(((S)-1-isopropoxy-1-oxopropan-2-yl)amino)(((isopropoxycarbonyl)oxy)methoxy)phosphoryl)oxy)methyl)tetrahydrofuran-3,4-diyl diacetate [Compound 1a] | 100 to 200 |
| (2R,3R,4R,5R)-2-(4-aminopyrrolo[2,1-f][1,2,4]triazin-7-yl)-2-cyano-5-((((S)-(((S)-1,4-bicyclopentyloxy-1,4-dioxobutan-2-yl)amino)(phenoxy)phosphoryl)oxy)methyl)tetrahydrofuran-3,4-diyl diacetate [Compound 58b] | < 100 |
| (2R,3R,4R,5R)-2-(4-aminopyrrolo[2,1-f][1,2,4]triazin-7-yl)-2-cyano-5-((((S)-(((S)-1,4-bicyclopentyloxy-1,4-dioxobutan-2-yl)amino)(phenoxy)phosphoryl)oxy)methyl)tetrahydrofuran-3,4-diyl dipropionate [Compound 59b] | < 100 |
| (2R,3R,4R,5R)-2-(4-aminopyrrolo[2,1-f][1,2,4]triazin-7-yl)-2-cyano-5-((((S)-(((S)-1,4-dicyclobutoxy-1,4-dioxobutan-2-yl)amino)(phenoxy)phosphoryl)oxy)methyl)tetrahydrofuran-3,4-diyl diacetate [Compound 55b] | 100 to 200 |
| (2R,3R,4R,5R)-2-(4-aminopyrrolo[2,1-f][1,2,4]triazin-7-yl)-2-cyano-5-((((S)-(((S)-1,4-dicyclobutoxy-1,4-dioxobutan-2-yl)amino)(phenoxy)phosphoryl)oxy)methyl)tetrahydrofuran-3,4-diyl dipropionate [Compound 56b] | 100 to 200 |
| (2R,3R,4R,5R)-2-(4-aminopyrrolo[2,1-f][1,2,4]triazin-7-yl)-2-cyano-5-((((S)-(((S)-1-(2-ethylbutoxy)-1-oxopropan-2-yl)amino)(((isopropoxycarbonyl)oxy)methoxy)phosphoryl)oxy)methyl)tetrahydrofuran-3,4-diyl diacetate [Compound 5b] | 100 to 200 |
| (2R,3R,4R,5R)-2-(4-aminopyrrolo[2,1-f][1,2,4]triazin-7-yl)-2-cyano-5-((((S)-(((S)-1-isopropoxy-1-oxopropan-2-yl)amino)(((isopropoxycarbonyl)oxy)methoxy)phosphoryl)oxy)methyl)tetrahydrofuran-3,4-diyl diacetate [Compound 1b] | 100 to 200 |
| (2R,3R,4R,5R)-2-(4-aminopyrrolo[2,1-f][1,2,4]triazin-7-yl)-5-((((bis(((isopropoxycarbonyl)oxy)methoxy))phosphoryl)oxy)methyl)-2-cyanotetrahydrofuran-3,4-diyldiisopropyl bis(carbonate) [Compound 28] | > 1000 |
